According to patent US11185096B2, “Sweet taste improving compositions including naringenin and steviol glycosides” (DR PEPPER/SEVEN UP, INC., priority 2014, dated 2021):

Experiments:
Format in all cases: in vivo
[1] = Sensory panel evaluation of naringenin in water (Example 1); settings: for Sweetness: sensory panelists
Description: Naringenin was evaluated in water as shown in Table B. Water used in all beverages described herein was specifically purified prior to use by processes well known in the art such as filtration, deionization, distillation, or reverse osmosis. Evaluation of the samples was performed using evaluation by sensory panelists. Beverage sampling comprised of taking an about 10 mL portion of the beverage into the mouth, holding the sample in the mouth, and rating the sweetness for each sample.

[2] = Taste evaluation of beverages with rebaudioside E, rebaudioside M or both, with and without naringenin (Example 3)
Description: In this example, samples were prepared to determine the taste attributes of reduced-calorie beverages including rebaudioside E, rebaudioside M, and combinations of rebaudiosides E and M, with and without naringenin. Beverages were prepared by adding rebaudiosides to the base solution shown in Table E. The tested concentrations of rebaudioside E, rebaudioside M, or a combination of both rebaudiosides, are shown in Table F. Beverages were then prepared by adding naringenin in various amounts, ranging from about 10 ppm to about 300 ppm, as shown in Table G. For example, naringenin was added to the base solution and each of the rebaudioside solutions shown in Table F. Further description of the beverages prepared in Example 3 is also shown in FIG. 2 of the drawings. Each of the prepared beverages was evaluated for changes or improvements for each of sweetness profile (upfront, middle, and back end sweetness), aftertaste (chemical, astringency), mouthfeel (cloying, thickness, thinness), and bitterness (relative to Rebaudioside A). For example, in a protocol to compare the bitterness of beverage samples to rebaudioside A, participants tasted each of an about 10 ml sample of the test beverage and an about 10 ml sample of a beverage including rebaudioside A (prepared in the same base solution shown in Table E). Relative bitterness was then immediately rated between the beverage samples.

[3] = Taste evaluation of reduced-calorie beverage (Table C base formula) with added naringenin, compared to a full-calorie beverage (Example 2)
From the text: The base formula of Table C may provide about a 50% reduction in calories as compared to a typical full-calorie beverage.
For example, delocalization of sweetness, an attribute that relates to the beverage mouthfeel, was increased. […] Moreover, the aftertaste of naringenin-including samples became more syrupy, resulting in an aftertaste that was more similar to the full-calorie product. Improvements in sweetness and aftertaste were found for each of the above samples that included naringenin.

[4] = Table C base formula with naringenin 15 to 300 ppm

Q: What does the source list for `O=C1C[C@@H](c2ccc(O)cc2)Oc2cc(O)cc(O)c21` [naringenin]?
A: taste or flavor ([1]; in water, data of Table B (5 to 200 ppm)): does not elicit any taste or flavor; Sweetness ([1]; naringenin 5 ppm in water): No perceptible sweetness; Sweetness ([1]; naringenin 10 ppm in water): No perceptible sweetness; Sweetness ([1]; naringenin 20 ppm in water): No perceptible sweetness; Sweetness ([1]; naringenin 40 ppm in water): No perceptible sweetness; Sweetness ([1]; naringenin 80 ppm in water): No perceptible sweetness; Sweetness ([1]; naringenin 100 ppm in water): No perceptible sweetness; Sweetness ([1]; naringenin 200 ppm in water): No perceptible sweetness; overall perception ([2]; 10, 50 or 70 ppm naringenin with combination of rebaudioside E and rebaudioside M, vs rebaudioside M alone or with naringenin): perceived as better; mouthfeel ([2]; 10 to 70 ppm naringenin with rebaudioside E, compared to rebaudioside E base alone): increased; overall perception ([2]; 300 ppm naringenin, Table E base with rebaudioside E 300 ppm): perceived as negative; overall perception ([2]; 300 ppm naringenin, Table E base with rebaudioside M 300 ppm): perceived as negative; overall perception ([2]; 300 ppm naringenin, Table E base with rebaudiosides E and M 150 ppm each): perceived as negative; suitability of naringenin level ([2]; 300 ppm naringenin, across all bases): too high; sweetness profiles ([2]; about 10 ppm to 70 ppm naringenin, Table E base with rebaudioside E 150 ppm and rebaudioside M 150 ppm): significantly improved; cloying mouthfeel and aftertaste ([2]; about 10 ppm to about 70 ppm naringenin, Table E base with rebaudiosides E and M 150 ppm each): diminished; mouthfeel ([2]; higher naringenin concentrations, particularly 300 ppm, Table E base with rebaudioside M 300 ppm, some participants): cloying mouthfeel; sweetness in the middle of the profile ([2]; naringenin added to Table E base with rebaudioside E 300 ppm): increased; taste character / mouthfeel ([2]; naringenin added to Table E base with rebaudioside M 300 ppm): sticky sweet; delocalization of sweetness [3, 4]: increased; upfront sweetness profile [3, 4]: surprisingly increased; syrup qualities of the beverages (mouthfeel) ([3]; Table C base formula with naringenin 15 to 300 ppm, vs full-calorie beverage): increase syrup qualities; aftertaste ([3]; Table C base formula with naringenin 15 to 300 ppm, vs full-calorie product): more syrupy; sweetness profile ([3]; Table C base formula, 15 ppm naringenin): significantly improved; sweetness profile ([3]; Table C base formula, about 30 ppm naringenin): close to that of the full-calorie product; noticeable taste impressions or interference with flavors ([3]; Table C base formula, above 30 ppm up to about 300 ppm naringenin): did not provide any noticeable taste impressions

Q: With `C=C1C[C@@]23CC[C@H]4[C@@](C)(CCC[C@@]4(C)C(=O)O[C@@H]4O[C@H](CO)[C@@H](O)[C@H](O)[C@H]4O[C@@H]4O[C@H](CO)[C@@H](O)[C@H](O)[C@H]4O)[C@@H]2CC[C@]1(O[C@@H]1O[C@H](CO)[C@@H](O)[C@H](O)[C@H]1O[C@@H]1O[C@H](CO)[C@@H](O)[C@H](O)[C@H]1O)C3` [rebaudioside E] as the compound, how does the sweetness profile ([2]; Table E base with rebaudioside E 300 ppm, without naringenin, in comparison to sugar or rebaudioside M solutions) read?
A: The sweetness profile was “very flat sweetness profile and flat”.

Q: What about the mouthfeel and fullness ([2]; rebaudioside E alone without naringenin, compared to rebaudioside M) of the same compound?
A: Its mouthfeel and fullness is “less mouthfeel and fullness”.
